ChEMBL document CHEMBL1201862, “PubChem BioAssay data set” (2004)
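Growth conditions: 96-well plates. Treatment: test compound, 48 hours, 5 concentrations. Analysis: linear interpolation between bracketing concentrations; unreached endpoints set to highest concentration. The concentration for 50% growth inhibition is given as GI50.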 The source made the active and inactive calls. No stated cut-off is given here; in the data, active = GI50 up to about 1.1 µM and inactive = higher.

Legend:
Test in all cases: NCI-60 cell line screen, 48 h
[1] = test system: ACHN
[2] = test system: HCC 2998
[3] = test system: IGROV-1
[4] = test system: SK-OV-3
[5] = test system: MDA-N
[6] = test system: HCT-15
[7] = test system: CCRF-CEM
[8] = test system: SW-620
[9] = test system: UACC-62
[10] = test system: SF-539
[11] = test system: TK-10
[12] = test system: OVCAR-8
[13] = test system: SK-MEL-28
[14] = test system: SNB-19
[15] = test system: SF-295
[16] = test system: NCI/ADR-RES
[17] = test system: DU-145
[18] = test system: RPMI-8226
[19] = test system: MDA-MB-231
[20] = test system: T47D
[21] = test system: NCI-H226
[22] = test system: SN12C
[23] = test system: SNB-75
[24] = test system: SK-MEL-5
[25] = test system: UO-31
[26] = test system: U-251
[27] = test system: KM12
[28] = test system: M14
[29] = test system: SR
[30] = test system: CAKI-1
[31] = test system: MCF7
[32] = test system: Malme-3M
[33] = test system: LOX IMVI
[34] = test system: MOLT-4
[35] = test system: HOP-62
[36] = test system: UACC-257
[37] = test system: A549
[38] = test system: HT-29
[39] = test system: HCT-116
[40] = test system: PC-3
[41] = test system: SF-268
[42] = test system: K562
[43] = test system: 786-0
[44] = test system: NCI-H23
[45] = test system: BT-549
[46] = test system: NCI-H522
[47] = test system: HL-60
[48] = test system: COLO 205
[49] = test system: OVCAR-3
[50] = test system: EKVX
[51] = test system: OVCAR-5
[52] = test system: MDA-MB-435
[53] = test system: RXF 393
[54] = test system: SK-MEL-2
[55] = test system: A498
[56] = test system: HOP-92
[57] = test system: OVCAR-4
[58] = test system: NCI-H460

`CN1CN(c2ccccc2)C2(CCN(CCC3COc4ccccc4O3)CC2)C1=O` (stereo not drawn) was tested, and the GI50 [1] was 18.1 µM (inactive), the GI50 [2] was 8.07 µM (inactive) and the GI50 [3] was 17.6 µM (inactive). The GI50 [4] was 26.6 µM (inactive), the GI50 [5] was 19.8 µM (inactive) and the GI50 [6] was 24.8 µM. For the same compound, the GI50 [7] was 17.9 µM (inactive), the GI50 [8] was 22 µM (inactive) and the GI50 [9] was 27.5 µM (inactive). For the same compound, the GI50 [10] was 18.8 µM (inactive), the GI50 [11] was 17.7 µM (inactive) and the GI50 [12] was 32.9 µM (inactive). The GI50 [13] was 19.6 µM (inactive), the GI50 [14] was 19.9 µM (inactive) and the GI50 [15] was 21.4 µM (inactive). The GI50 [16] was 19.7 µM (inactive), the GI50 [17] was 14.9 µM (inactive) and the GI50 [18] was 17.8 µM (inactive). The GI50 [19] was 31.9 µM (inactive), the GI50 [20] was 4.65 µM (inactive) and the GI50 [21] was 27.9 µM (inactive). For the same compound, the GI50 [22] was 27.7 µM (inactive), the GI50 [23] was 38.2 µM (inactive) and the GI50 [24] was 12.9 µM (inactive). For the same compound, the GI50 [25] was 13.5 µM (inactive), the GI50 [26] was 27.5 µM (inactive) and the GI50 [27] was 24.7 µM (inactive). The GI50 [28] was 15.6 µM (inactive), the GI50 [29] was 20.9 µM (inactive) and the GI50 [30] was 28.2 µM (inactive). The GI50 [31] was 5.27 µM (inactive), the GI50 [32] was 19.5 µM (inactive) and the GI50 [33] was 23 µM (inactive). For the same compound, the GI50 [34] was 17 µM (inactive), the GI50 [35] was > 10 µM (inactive) and the GI50 [36] was 12.5 µM (inactive). For the same compound, the GI50 [37] was 33.1 µM (inactive), the GI50 [38] was 3.88 µM (inactive) and the GI50 [39] was 5.92 µM (inactive). For the same compound, the GI50 [40] was 27.8 µM (inactive), the GI50 [41] was 33.8 µM (inactive) and the GI50 [42] was 20.1 µM (inactive). For the same compound, the GI50 [43] was 36.4 µM (inactive), the GI50 [44] was 30.4 µM (inactive) and the GI50 [45] was 18 µM (inactive). For the same compound, the GI50 [46] was 13.8 µM (inactive), the GI50 [47] was 19.6 µM (inactive) and the GI50 [48] was 5.6 µM (inactive). For the same compound, the GI50 [49] was 19.9 µM (inactive), the GI50 [50] was 10.3 µM (inactive) and the GI50 [51] was 18.6 µM (inactive). The GI50 [52] was 24.2 µM (inactive) and the GI50 [53] was 31.1 µM (inactive).

`C[Si](C)(C)CNC(=O)OCc1ccccc1` was tested, and the GI50 [1] was > 100 µM (inactive), the GI50 [2] was > 100 µM (inactive) and the GI50 [3] was > 100 µM (inactive). The GI50 [4] was 0.962 µM (active), the GI50 [5] was > 100 µM (inactive) and the GI50 [6] was > 100 µM. For the same compound, the GI50 [7] was > 100 µM (inactive), the GI50 [8] was > 100 µM (inactive) and the GI50 [9] was > 100 µM (inactive). For the same compound, the GI50 [10] was > 100 µM (inactive), the GI50 [11] was > 100 µM (inactive) and the GI50 [12] was > 100 µM (inactive). The GI50 [13] was > 100 µM (inactive), the GI50 [14] was > 100 µM (inactive) and the GI50 [15] was > 100 µM (inactive). The GI50 [16] was 75 µM (inactive), the GI50 [17] was > 100 µM (inactive) and the GI50 [18] was 32.2 µM (inactive). The GI50 [19] was > 100 µM (inactive), the GI50 [20] was 19.1 µM (inactive) and the GI50 [21] was 66.4 µM (inactive). For the same compound, the GI50 [54] was > 100 µM (inactive), the GI50 [22] was > 100 µM (inactive) and the GI50 [23] was 90.4 µM (inactive). The GI50 [24] was 57.7 µM (inactive), the GI50 [25] was > 100 µM (inactive) and the GI50 [26] was > 100 µM (inactive). For the same compound, the GI50 [27] was > 100 µM (inactive), the GI50 [28] was > 100 µM (inactive) and the GI50 [29] was 30.6 µM (inactive). The GI50 [30] was > 100 µM (inactive), the GI50 [55] was > 100 µM (inactive) and the GI50 [31] was > 100 µM (inactive). For the same compound, the GI50 [33] was > 100 µM (inactive), the GI50 [56] was 22.1 µM (inactive) and the GI50 [35] was 58.1 µM (inactive). For the same compound, the GI50 [36] was > 100 µM (inactive), the GI50 [37] was > 100 µM (inactive) and the GI50 [38] was 48 µM (inactive). The GI50 [39] was > 100 µM (inactive), the GI50 [40] was > 100 µM (inactive) and the GI50 [41] was > 100 µM (inactive). For the same compound, the GI50 [42] was 48.9 µM (inactive), the GI50 [43] was > 100 µM (inactive) and the GI50 [44] was 76 µM (inactive). The GI50 [45] was 98.9 µM (inactive), the GI50 [57] was 87.1 µM (inactive) and the GI50 [46] was 83.2 µM (inactive). For the same compound, the GI50 [47] was 57.4 µM (inactive), the GI50 [48] was > 100 µM (inactive) and the GI50 [49] was > 100 µM (inactive). For the same compound, the GI50 [50] was 76.7 µM (inactive), the GI50 [51] was > 100 µM (inactive) and the GI50 [52] was > 100 µM (inactive). The GI50 [58] was > 100 µM (inactive).

For `Cc1c(F)c(N)c2c(=O)cc(-c3ccc(NC(=O)[C@@H](N)CCCCN)c(F)c3)oc2c1F`, the GI50 [1] was 12.9 µM (inactive), the GI50 [3] was 0.0418 µM (active) and the GI50 [4] was 15.1 µM (inactive). The GI50 [5] was 7.26 µM (inactive), the GI50 [6] was 11.2 µM and the GI50 [7] was 3.52 µM (inactive). The GI50 [11] was 0.134 µM (active), the GI50 [12] was 11 µM (inactive) and the GI50 [13] was 13.2 µM (inactive). For the same compound, the GI50 [14] was 18.4 µM (inactive), the GI50 [15] was 15.6 µM (inactive) and the GI50 [16] was 21.4 µM (inactive). For the same compound, the GI50 [17] was 13.7 µM (inactive), the GI50 [19] was 13.2 µM (inactive) and the GI50 [20] was 0.159 µM (active). The GI50 [54] was 21.3 µM (inactive), the GI50 [22] was 14.9 µM (inactive) and the GI50 [23] was 4.68 µM (inactive). The GI50 [25] was 7.83 µM (inactive), the GI50 [27] was 9.33 µM (inactive) and the GI50 [28] was 16.4 µM (inactive). The GI50 [55] was 0.0537 µM (active), the GI50 [31] was 0.033 µM (active) and the GI50 [33] was 8.83 µM (inactive). The GI50 [56] was 18.6 µM (inactive), the GI50 [35] was 7.59 µM (inactive) and the GI50 [36] was 0.242 µM (active). The GI50 [38] was 13.1 µM (inactive), the GI50 [39] was 2.88 µM (inactive) and the GI50 [40] was 15.3 µM (inactive). The GI50 [41] was 11.9 µM (inactive), the GI50 [43] was 9.31 µM (inactive) and the GI50 [45] was 24.4 µM (inactive). The GI50 [50] was 6.68 µM (inactive), the GI50 [52] was 7.21 µM (inactive) and the GI50 [58] was 0.101 µM (active). The GI50 [53] was 18.2 µM (inactive).

In the case of `CC[C@@]1(O)C(=O)OCc2c1cc1n(c2=O)Cc2c-1nc1ccccc1c2/C=N\NC(=O)C(N)CCSC` (stereo partly drawn), the GI50 [1] is reported as < 0.01 µM (active), the GI50 [2] is reported as 0.336 µM (active) and the GI50 [3] is reported as 0.239 µM (active). For the same compound, the GI50 [4] was < 0.0127 µM (active), the GI50 [5] was 0.224 µM (active) and the GI50 [6] was 0.39 µM. The GI50 [7] was < 0.01 µM (active), the GI50 [8] was 0.0883 µM (active) and the GI50 [9] was < 0.01 µM (active). For the same compound, the GI50 [10] was < 0.01 µM (active), the GI50 [11] was 6.4 µM (inactive) and the GI50 [12] was < 0.0119 µM (active). For the same compound, the GI50 [13] was 1.03 µM (active), the GI50 [14] was < 0.01 µM (active) and the GI50 [15] was < 0.01 µM (active). The GI50 [16] was 0.0395 µM (active), the GI50 [17] was 0.0175 µM (active) and the GI50 [18] was < 0.0282 µM (active). The GI50 [19] was 1.24 µM (inactive), the GI50 [20] was < 0.01 µM (active) and the GI50 [21] was < 0.016 µM (active). The GI50 [54] was 0.713 µM (active), the GI50 [22] was < 0.01 µM (active) and the GI50 [23] was < 0.01 µM (active). The GI50 [24] was 0.0149 µM (active), the GI50 [25] was < 0.0104 µM (active) and the GI50 [26] was < 0.01 µM (active). The GI50 [27] was 0.254 µM (active), the GI50 [28] was < 0.0121 µM (active) and the GI50 [29] was < 0.01 µM (active). For the same compound, the GI50 [30] was < 0.01 µM (active), the GI50 [55] was 0.0628 µM (active) and the GI50 [31] was < 0.01 µM (active). The GI50 [32] was 0.102 µM (active), the GI50 [33] was < 0.01 µM (active) and the GI50 [56] was 0.0863 µM (active). The GI50 [34] was < 0.01 µM (active), the GI50 [35] was < 0.01 µM (active) and the GI50 [36] was 0.228 µM (active). The GI50 [37] was 0.0183 µM (active), the GI50 [38] was 0.266 µM (active) and the GI50 [39] was 0.0253 µM (active). The GI50 [40] was 0.13 µM (active), the GI50 [41] was < 0.01 µM (active) and the GI50 [42] was 0.0109 µM (active). The GI50 [43] was < 0.01 µM (active), the GI50 [44] was < 0.01 µM (active) and the GI50 [45] was 0.102 µM (active). For the same compound, the GI50 [57] was 0.299 µM (active), the GI50 [46] was < 0.032 µM (active) and the GI50 [47] was < 0.01 µM (active). For the same compound, the GI50 [48] was 1.24 µM (inactive), the GI50 [49] was 0.352 µM (active) and the GI50 [50] was 0.668 µM (active). The GI50 [51] was 0.774 µM (active), the GI50 [52] was 0.108 µM (active) and the GI50 [58] was < 0.01 µM (active). For the same compound, the GI50 [53] was < 0.0146 µM (active).
